pIC50: −log10 of the molar value.
What was measured:
[1] = target: T1, recombinant human transglutaminase 2 (Homo sapiens, UniProt P21980); assay: Transglutaminase assay (DCC-assay: dansylcadaverine incorporation into dimethylcasein); format: biochemical; settings: for pIC50: 10 nM TG2, 37° C., slope 20-30 min
T1 construct: purchased Zedira T022
T1 sequence (P21980 1-687): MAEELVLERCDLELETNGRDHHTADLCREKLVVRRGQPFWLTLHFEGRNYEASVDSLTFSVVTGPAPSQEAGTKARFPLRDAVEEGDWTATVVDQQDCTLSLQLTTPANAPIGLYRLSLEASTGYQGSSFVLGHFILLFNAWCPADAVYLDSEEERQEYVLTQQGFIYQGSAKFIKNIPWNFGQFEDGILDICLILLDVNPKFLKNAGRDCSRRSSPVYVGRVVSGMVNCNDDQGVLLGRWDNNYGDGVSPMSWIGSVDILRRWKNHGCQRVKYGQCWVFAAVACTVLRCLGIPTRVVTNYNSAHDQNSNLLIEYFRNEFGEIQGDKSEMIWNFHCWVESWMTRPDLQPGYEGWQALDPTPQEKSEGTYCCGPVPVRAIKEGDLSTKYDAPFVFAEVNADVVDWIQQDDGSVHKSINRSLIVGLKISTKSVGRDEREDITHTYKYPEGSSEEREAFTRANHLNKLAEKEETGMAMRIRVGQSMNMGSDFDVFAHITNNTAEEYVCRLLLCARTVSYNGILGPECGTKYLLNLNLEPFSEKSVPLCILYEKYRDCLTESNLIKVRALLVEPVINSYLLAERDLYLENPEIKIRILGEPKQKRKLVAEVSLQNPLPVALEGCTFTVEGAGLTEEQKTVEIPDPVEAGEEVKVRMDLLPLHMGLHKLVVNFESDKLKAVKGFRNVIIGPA
Protocol: To illustrate the advantage of branched alkyl moieties over aromatic moieties, we refer to reference compounds Ref. 2 (ZED1227, U.S. Pat. No. 9,434,763 B2) and Ref. 3 (A8, ZED1047). Inhibition data were determined using the classical fluorescent transamidation assay (dansylcadaverine incorporation into methylated casein, DCC-assay) as described [Büchold, C.; Hils, M.; Gerlach, U.; Weber, J.; Pelzer, C.; Heil, A.; Aeschlimann, D.; Pasternack, R. Features of ZED1227: The First-In-Class Tissue Transglutaminase Inhibitor Undergoing Clinical Evaluation for the Treatment of Celiac Disease. Cells 2022, 11, 1667. https://doi.org/10.3390/cells11101667]. Casein is one of the best known high molecular weight (24 kDa) protein substrates for transglutaminases. Please note, the IC50 value of Ref. 3 (A8) published in U.S. Pat. No. 9,434,763 B2 cannot be compared to the present data, relying on a fluorogenic isopeptidase assay.
To this extent, inhibition data were determined using the classical fluorescent transamidation assay (dansylcadaverine incorporation into methylated casein, DCC-assay) as described in Büchold et al. [Buchold, C.; Hils, M.; Gerlach, U.; Weber, J.; Pelzer, C.; Heil, A.; Aeschlimann, D.; Pasternack, R. Features of ZED1227: The First-In-Class Tissue Transglutaminase Inhibitor Undergoing Clinical Evaluation for the Treatment of Celiac Disease. Cells 2022, 11, 1667. https://doi.org/10.3390/cells11101667]. Casein is one of the best known high molecular weight (24 kDa) protein substrates for transglutaminases. Inhibition data of the inventive compounds was compared with inhibition of compounds disclosed in U.S. Pat. No. 9,434,763 B2, particularly, compound A8, which is denoted herein as Reference 3. It is noteworthy that the IC50 values of compounds A8 published in U.S. Pat. No. 9,434,763 B2 and E16 from U.S. Pat. No. 11,072,634 B2 cannot be compared to the present data, relying on a fluorogenic isopeptidase assay.
For the determination of potency of inhibitors against tissue transglutaminase, the incorporation of dansylcadaverine into dimethylcasein (Zedira product T036, Lorand et al., Anal Biochem, 1971, 44:221-31) was measured using recombinant human transglutaminase 2 (Zedira Product T022).
The tissue transglutaminase is diluted in buffer (50 mM Tris-HCl, 7.5 mM CaCl2), 150 mM NaCl, pH=7.4). The final concentration of TG2 in the assay is 10 nM. A 10 mM inhibitor stock solution is prepared in DMSO, and from this a serial 1:2-fold dilution series is prepared also in DMSO. […]
Increase in fluorescence is measured using λex=330 nm and λem=500 nm at 37° C. for 30 min. […]
Analysis of enzymatic activity is performed by calculation of the slope of an increase in fluorescence intensity. […]

[2] = Log D by shake flask method (octanol / PBS pH 7.4, HPLC); format: physicochemical; settings: octanol/phosphate-buffered saline; octanol / PBS pH 7.4, shake flask
Protocol: In order to classify the inventive compounds according to their lipophilicity, Log D values (distribution coefficient) were determined by means of the well-established shake flask method, measuring the partition of a compound between an octanol and phosphate-buffered saline (PBS, pH 7.4) by HPLC.
Compounds with a moderate lipophilicity (Log D values from 0 to 3) are usually advantaged for oral absorption, being in balance between solubility and permeability. However, sophisticated formulation of a compound might improve oral bioavailability for highly lipophilic compounds.

[3] = Caco-2 permeability assay (CacoReady kit); format: in vitro ADME; settings: human; Caco-2 barrier
Protocol: Permeability coefficients (Papp values) were obtained from Caco-2 barrier studies predicting oral/intestinal bioavailability of the tested compounds. The assays were performed by using CacoReady™ ready-to-use kits from ReadyCell according to the manufacturers protocol.

pIC50 [1]	logD [2]	Papp [3] [×10⁻⁶ cm/s]	fold more potent compared to Ref. 4 ([1]; compared to Ref. 4, table 1)	fold more potent compared to Ref. 3 ([1]; DCC-assay, compared to Ref. 3 (A8)) [fold]	Compound
6.22 to 6.82	1 to 3	< 1			CCNC(=O)C(=O)CC[C@H](NC(=O)c1ccn(C)n1)C(=O)Nc1cccn(CC(=O)N[C@]23C[C@H]4C5CC6CC4[C@H](C2)C(C6)[C@H]5C3)c1=O (single isomer, unassigned) [Compound I-80]
			about 15 fold		CCC(CC)CNC(=O)Cn1cccc(NC(=O)[C@H](CCC(=O)C(=O)NC)NC(=O)c2cncn2C)c1=O [Ref. 1, reference compound]
				80	CCC(CC)CNC(=O)Cn1cccc(NC(=O)[C@H](CC/C=C/C(=O)OC)NC(=O)c2cncn2C)c1=O [Ref. 2, reference compound]
5.46 to 6.22	1 to 3	1 to 10			CCNC(=O)C(=O)CC[C@H](NC(=O)c1ncc(OC)o1)C(=O)Nc1cccn(CCC(=O)NC2C3CC4CC(C3)CC2C4)c1=O (stereo partly drawn) [Compound I-87, (S)-N1-(1-(3-(2-adamantylamino)-3-oxopropyl)-2-oxo-1,2-dihydropyridin-3-yl)-N6-ethyl-2-(5-methoxyoxazole-2-carboxamido)-5-oxohexanediamide]

Reference: patent US20240376055A1, “INHIBITORS OF TRANSGLUTAMINASES” (Zedira GmbH, priority 2021, published 2024)
